Measured values taken from US10105357B2, “Indication of antibiotic drugs for preparation of cancer inhibition pharmaceutical composition” (LAUNX BIOMEDICAL CO., LTD., priority 2014, dated 2018).
Counter-ions that a name gives are not always drawn. Like-named read-outs stand apart in the source and are kept apart here.

Columns and labels:
Assay type in all cases: cell-based, human
cancer cell lines = experiment: Cell viability analysis (WST-1) on cancer cell lines; details: drug 10 μM, 72 hours, WST-1; Table 3
[1] = tested on: HI650 (Lung Adenocarcinoma); experiment: Cell viability analysis, lung cancer HI650; details: for viability at 10 µM: Homo sapiens
[2] = tested on: A549 (Lung Adenocarcinoma); experiment: Cell viability analysis, lung cancer A549; details: for viability at 10 µM: Homo sapiens
[3] = tested on: AGS (Gastric Adenocarcinoma); experiment: Cell viability analysis, gastric cancer AGS; details: for viability at 10 µM: Homo sapiens
[4] = tested on: MKN-45 (Gastric Adenocarcinoma); experiment: Cell viability analysis, gastric cancer MKN-45; details: for viability at 10 µM: Homo sapiens
[5] = tested on: HepG2 (Hepatocellular Carcinoma); experiment: Cell viability analysis, hepatic cancer HepG2; details: for viability at 10 µM: Homo sapiens
[6] = tested on: LoVo (Colorectal Adenocarcinoma); experiment: Cell viability analysis, colon cancer LoVo; details: for viability at 10 µM: Homo sapiens, LoVo
[7] = tested on: A375 (Amelanotic Melanoma); experiment: Cell viability analysis, skin cancer A375; details: for viability at 10 µM: Homo sapiens
[8] = tested on: HeLa (Cervix Adenocarcinoma); experiment: Cell viability analysis, cervical cancer HeLa; details: for viability at 10 µM: Homo sapiens, HeLa
[9] = tested on: PC3 (p53−) (Prostate Adenocarcinoma); experiment: Cell viability analysis, prostate cancer PC3; details: for viability at 10 µM: Homo sapiens
[10] = tested on: TSGH-8301 (Urinary Bladder Carcinoma); experiment: Cell viability analysis, bladder cancer TSGH-8301; details: for viability at 10 µM: Homo sapiens
[11] = tested on: MCF7 (Mammary Gland, Adenocarcinoma); experiment: Cell viability analysis, breast cancer MCF7; details: for viability at 10 µM: Homo sapiens
[12] = tested on: HL-60 (Acute Promyelocytic Leukemia); experiment: Cell viability analysis, leukemia HL-60; details: for viability at 10 µM: Homo sapiens
[13] = NCI-H1650, 72 h, read-out: cell viability (survival rate), H1650, drug 10 μM, 72 hours, WST-1, OD450 nm
[14] = A549, 72 h, read-out: cell viability (survival rate), A549, drug 10 μM, 72 hours, WST-1, OD450 nm
[15] = 72 h, read-out: cell viability (survival rate), AGS, drug 10 μM, 72 hours, WST-1, OD450 nm
[16] = MKN-45, 72 h, read-out: cell viability (survival rate), MKN-45, drug 10 μM, 72 hours, WST-1, OD450 nm
[17] = HepG2, 72 h, read-out: cell viability (survival rate), HepG2, drug 10 μM, 72 hours, WST-1, OD450 nm
[18] = 72 h, read-out: cell viability (survival rate), LoVo, drug 10 μM, 72 hours, WST-1, OD450 nm
[19] = A-375, 72 h, read-out: cell viability (survival rate), A375, drug 10 μM, 72 hours, WST-1, OD450 nm
[20] = 72 h, read-out: cell viability (survival rate), HeLa, drug 10 μM, 72 hours, WST-1, OD450 nm
[21] = 72 h, read-out: cell viability (survival rate), PC3, drug 10 μM, 72 hours, WST-1, OD450 nm
[22] = 72 h, read-out: cell viability (survival rate), TSGH, drug 10 μM, 72 hours, WST-1, OD450 nm
[23] = MCF7, 72 h, read-out: cell viability (survival rate), MCF7, drug 10 μM, 72 hours, WST-1, OD450 nm
[24] = HL-60, 72 h, read-out: cell viability (survival rate), HL-60, drug 10 μM, 72 hours, WST-1, OD450 nm

Row | SMILES | inhibition effect on different cancer cell lines (cancer cell lines) | viability at 10 µM [1, 13] [%] | viability at 10 µM [2, 14] [%] | viability at 10 µM [3, 15] [%] | viability at 10 µM [4, 16] [%] | viability at 10 µM [5, 17] [%] | viability at 10 µM [6, 18] [%] | viability at 10 µM [7, 19] [%] | viability at 10 µM [8, 20] [%] | viability at 10 µM [9, 21] [%] | viability at 10 µM [10, 22] [%] | viability at 10 µM [11, 23] [%] | viability at 10 µM [12, 24] [%] | also measured
1 | C[C@@H]1CN(c2c(F)c(N)c3c(=O)c(C(=O)O)cn(C4CC4)c3c2F)C[C@H](C)N1 [Sparfloxacin] | significant inhibition effect | 88.5 | 86.5 | 79.9 | 57.5 | 97.6 | 97 | 82.6 | 88.3 | 50.1 | 68.1 | 56.3 | 99.3 | –
2 | CCS(=O)(=O)CCn1c([N+](=O)[O-])cnc1C [tinidazole] | significant inhibition effect | 91.1 | 79.5 | 104 | 100 | 95.5 | 78.5 | 60.6 | 97.8 | 85.6 | 112 | 88 | 89 | –
3 | CO/N=C(\C(=O)N[C@@H]1C(=O)N2C(C(=O)O)=C(CSC(=O)c3ccco3)CS[C@H]12)c1csc(N)n1 [Ceftiofur hydrochloride] | significant inhibition effect | 44 | 61.6 | 69.4 | 85.5 | 91.9 | 85 | 92.8 | 92.2 | 73.1 | 50.6 | 159 | 92.2 | –
4 | CC(N)C12CC3CC(CC(C3)C1)C2 (stereo not shown) [Rimantadine (Flumadine), Rimantadine] | significant inhibition effect | – | – | – | – | – | 95.7 | – | – | – | – | – | – | viability at 10 µM ([1]; NCI-H1650, 72 h, drug 10 μM, 72 hours, WST-1, OD450 nm, read-out: cell viability (survival rate), H1650): 96.9%; viability at 10 µM ([2]; A549, 72 h, drug 10 μM, 72 hours, WST-1, OD450 nm, read-out: cell viability (survival rate), A549): 111%; viability at 10 µM ([3]; 72 h, drug 10 μM, 72 hours, WST-1, OD450 nm, read-out: cell viability (survival rate), AGS): 90.8%; viability at 10 µM ([4]; MKN-45, 72 h, drug 10 μM, 72 hours, WST-1, OD450 nm, read-out: cell viability (survival rate), MKN-45): 82.3%; viability at 10 µM ([5]; HepG2, 72 h, drug 10 μM, 72 hours, WST-1, OD450 nm, read-out: cell viability (survival rate), HepG2): 87.7%; viability at 10 µM ([7]; A-375, 72 h, drug 10 μM, 72 hours, WST-1, OD450 nm, read-out: cell viability (survival rate), A375): 70.3%; viability at 10 µM ([8]; 72 h, drug 10 μM, 72 hours, WST-1, OD450 nm, read-out: cell viability (survival rate), HeLa): 71.1%; viability at 10 µM ([9]; 72 h, drug 10 μM, 72 hours, WST-1, OD450 nm, read-out: cell viability (survival rate), PC3): 91.3%; viability at 10 µM ([10]; 72 h, drug 10 μM, 72 hours, WST-1, OD450 nm, read-out: cell viability (survival rate), TSGH): 126%; viability at 10 µM ([11]; MCF7, 72 h, drug 10 μM, 72 hours, WST-1, OD450 nm, read-out: cell viability (survival rate), MCF7): 97.1%; viability at 10 µM ([12]; HL-60, 72 h, drug 10 μM, 72 hours, WST-1, OD450 nm, read-out: cell viability (survival rate), HL-60): 107%
5 | CC1=C(C(=O)O)N2C(=O)[C@@H](NC(=O)[C@H](N)c3ccccc3)[C@H]2SC1 [Cephalexin (Cefalexin), Cephalexin] | significant inhibition effect | 71.2 | 80.6 | 59.6 | 94.9 | 109 | 85.9 | 92.7 | 76.2 | 57.5 | 69.2 | 96.1 | 95.2 | –
6 | Cc1nnc(NS(=O)(=O)c2ccc(N)cc2)s1 [Sulfamethizole (Proklar), Sulfamethizole] | significant inhibition effect | 99.2 | 90.4 | 86.6 | 84.6 | 95 | 86.4 | 99.1 | 105 | 86 | 114 | 100 | 104 | –
7 | O=C(Nc1ccccc1)c1ccccc1O [Salicylanilide] | significant inhibition effect | – | – | – | – | – | – | – | – | – | – | – | – | viability at 10 µM ([1]; NCI-H1650, drug 10 μM, 72 hours, WST-1, OD450 nm, read-out: cell viability (survival rate), H1650): 80.5%; viability at 10 µM ([2]; A549, drug 10 μM, 72 hours, WST-1, OD450 nm, read-out: cell viability (survival rate), A549): 62.1%; viability at 10 µM ([3]; drug 10 μM, 72 hours, WST-1, OD450 nm, read-out: cell viability (survival rate), AGS): 77.8%; viability at 10 µM ([4]; MKN-45, drug 10 μM, 72 hours, WST-1, OD450 nm, read-out: cell viability (survival rate), MKN-45): 83.5%; viability at 10 µM ([5]; HepG2, drug 10 μM, 72 hours, WST-1, OD450 nm, read-out: cell viability (survival rate), HepG2): 97.2%; viability at 10 µM ([6]; drug 10 μM, 72 hours, WST-1, OD450 nm, read-out: cell viability (survival rate), LoVo): 86.2%; viability at 10 µM ([7]; A-375, drug 10 μM, 72 hours, WST-1, OD450 nm, read-out: cell viability (survival rate), A375): 92.8%; viability at 10 µM ([8]; drug 10 μM, 72 hours, WST-1, OD450 nm, read-out: cell viability (survival rate), HeLa): 118%; viability at 10 µM ([9]; drug 10 μM, 72 hours, WST-1, OD450 nm, read-out: cell viability (survival rate), PC3): 89.7%; viability at 10 µM ([10]; drug 10 μM, 72 hours, WST-1, OD450 nm, read-out: cell viability (survival rate), TSGH): 108%; viability at 10 µM ([11]; MCF7, drug 10 μM, 72 hours, WST-1, OD450 nm, read-out: cell viability (survival rate), MCF7): 106%; viability at 10 µM ([12]; HL-60, drug 10 μM, 72 hours, WST-1, OD450 nm, read-out: cell viability (survival rate), HL-60): 71.1%
8 | Nc1nc2c(ncn2CCC(CO)CO)c(=O)[nH]1 [Penciclovir] | significant inhibition effect | 71.5 | 74.7 | 71 | 98.5 | 95.7 | 98.5 | 64.2 | 81.7 | 106 | 79.1 | 110 | 114 | –
9 | CC1(C)S[C@@H]2[C@H](NC(=O)[C@H](N)c3ccccc3)C(=O)N2[C@H]1C(=O)O [Ampicillin Trihydrate] | significant inhibition effect | – | – | – | – | – | – | – | – | – | – | – | – | cell viability (survival rate), H1650 ([1]; human, 72 h, 10 µM): 63.6; cell viability (survival rate), A549 ([2]; human, 72 h, 10 µM): 41.9; cell viability (survival rate), AGS ([3]; human, 72 h, 10 µM): 95.3; cell viability (survival rate), MKN-45 ([4]; human, 72 h, 10 µM): 56.3; cell viability (survival rate), HepG2 ([5]; human, 72 h, 10 µM): 92.4; cell viability (survival rate), LoVo ([6]; human, 72 h, 10 µM): 78.4; cell viability (survival rate), A375 ([7]; human, 72 h, 10 µM): 53.7; cell viability (survival rate), HeLa ([8]; human, 72 h, 10 µM): 59.3; cell viability (survival rate), PC3 ([9]; human, 72 h, 10 µM): 65.3; cell viability (survival rate), TSGH ([10]; human, 72 h, 10 µM): 61.3; cell viability (survival rate), MCF7 ([11]; human, 72 h, 10 µM): 36.5; cell viability (survival rate), HL-60 ([12]; human, 72 h, 10 µM): 92.7
10 | Cc1cccc(C(C)c2cnc[nH]2)c1C (stereo not shown) [Medetomidine HCl] | significant inhibition effect | 49.8 | 73.7 | 108 | 37.4 | 91.9 | 79.4 | 59.7 | 78.4 | 65.6 | 104 | 72.3 | 84.5 | –
